We go through 1 compound from US11235020B2, “Methods and compositions for inhibiting glyoxalase 1 (GLO1)” (priority 2013, dated 2022).

Several values for one entry are separate records, joined by “and”; a condition that tells them apart may be missing. Equal entries are not always repeated. Where two headings read alike, the source gives them in different places.

Data set [1] relates to anxiety-like behavior in B6 mice. The data set is described as follows: Light-dark (LD) box test. The format is in vivo, mouse. The following applies: MG 50 mg/kg i.p. Here is the method: LD box test: Mice were placed in the light compartment, and activity was monitored for 4 minutes. The light compartment was illuminated to approximately 1,000 lux, and the dark compartment was illuminated to approximately 5 lux. Behavior was recorded and automatically scored by the Noldus Ethovision System.
LD box test: Ten minutes post-injection, mice were placed in the light compartment, and activity was monitored for three minutes. The light compartment was illuminated to approximately 1,000 lux, and the dark compartment was illuminated to approximately 5 lux. Behavior was recorded and automatically scored by the Noldus Ethovision System.

Data set [2] concerns anxiety-like behavior and locomotion in mice. The data set is described as follows: Open field (OF) test. The data set is classed as in vivo, mouse. The procedure: OF test: Mice were placed into the center of the OF, and activity was monitored for five to ten minutes. The apparatus was illuminated to approximately 40 lux. Data were collected and processed using the manufacturer's software (AccuScan Instruments).
OF test: Ten minutes post-injection, mice were placed into the center of the OF. The apparatus was illuminated to approximately 40 lux. Behavior was measured as described above.
OF test replication studies: Ten to twenty minutes post-injection, mice were tested in the OF for five to ten minutes. In some experiments, behavior was scored as described above. In other experiments, mice were tested in the OF, and behavior was automatically scored by the Noldus Ethovision System. For mice tested in the Noldus system, the apparatus was illuminated to approximately 1,000 lux.
Chronic MG administration: For five days, mice were injected twice daily with vehicle or MG (4 mg/kg). Twelve hours after the final injection, mice were tested in the OF as described above.
Pure MG: Pure MG was obtained from Dr. John Termini at the City of Hope, Duarte, Calif. It was administered at the indicated doses by i.p. injection. Mice were tested as described above.
OF test: Two hours post-injection, mice were tested in the OF test as described above. The center size was 10×10 cm. The apparatus was illuminated to approximately 40 lux.

The test system of data set [3] is sodium currents. Kind of data set: Voltage-gated sodium currents in CGN. The data set is classed as cell-based, rat. The following applies: 10 μM MG. The procedure: Sodium currents: Sodium currents were studied as previously described (Plant 2006) using a bath solution containing 130 mM NaCl, 5 mM CsCl, 2 mM CaCl2, 1.2 mM MgCl2, 5 mM glucose, and 10 mM HEPES adjusted to pH 7.4 with NaOH. 500 nM tetrodotoxin (Sigma) was included in the bath […]. The electrode solution contained 60 mM CsCl, 80 mM CsF, 10 mM EGTA, 1 mM CaCl2, 1 mM MgCl2, 5 mM Na2ATP, and 10 mM HEPES adjusted to pH 7.4 with CsOH. All voltage-gated currents were studied following a P/5 leak subtraction protocol, and voltage-clamp errors were minimized with 80% series resistance compensation.

Data set [4] concerns GABAA receptors in cerebellar granule neurons. Kind of data set: Whole-cell patch clamp in cerebellar granule neurons (CGN). The format is cell-based, rat. The procedure:
Reagents: All reagents were obtained from Sigma-Aldrich.
Culture of rat CGN: CGN were cultured from mixed-sex Sprague-Dawley rats. Tissue was dissected from 6- to 8-day-old rats. Cells were suspended in minimal essential medium supplemented with 10% fetal calf serum, 26 mM glucose, 19 mM KCl, 2 mM 1-glutamine, and penicillin/streptomycin (50 IU/ml and 50 μg/ml). Cells were seeded on poly-1-lysine-coated coverslips and incubated in a humidified atmosphere containing 5% CO2 at 37° C. After 48 hours, the culture medium was replaced with minimal essential medium supplemented with 10% horse serum, 26 mM glucose, 19 mM KCl, 2 mM 1-glutamine, penicillin/streptomycin (50 IU/ml and 50 μg/ml), and 80 μM 1-fluorodeoxyuridine. Culture medium was exchanged every three days. All recordings were made from cells between days 6 to 9 in culture.
Filter and sampling frequencies were 5 and 25 kHz, respectively, for voltage-clamp experiments and 1 and 10 kHz, respectively, for current-clamp recording. Experiments were performed at 32° C. using a feedback-controlled heated perfusion system (Warner Instruments). Vm, ligand-gated currents, and potassium channel currents were studied in a bath solution containing 1 mM CaCl2, 1 mM MgCl2, 4 mM KCl, 140 mM NaCl, 5 mM glucose, and 10 mM HEPES (pH 7.4). […] Electrodes were coated with Sigmacote (Sigma) prior to use.
Ligand-gated currents: Ligand-gated currents were studied in voltage-clamp mode by application of reagents to cells held at −50 mV.
(The patch-clamp technique gives a direct electrical read-out from membranes.)

For data set [5], the system named is glutamate receptors. The data set is described as follows: Glutamatergic currents in CGN. Particulars: 10 μM MG. The data set is classed as cell-based, rat. From the text:
Ligand-gated currents: Ligand-gated currents were studied in voltage-clamp mode by application of reagents to cells held at −50 mV. GABAergic and glycinergic currents were activated by application of GABA and glycine and antagonized by application of SR and strychnine, respectively (Kaneda 1995). Glutamatergic currents were activated by 1-glutamate and antagonized by CNQX and AP-5 (Wyllie 1994).

Data set [6] has as its system picrotoxin-induced seizures. Kind of data set: Picrotoxin-induced seizures, behavioral scoring. The format is in vivo, mouse. Particulars: MG 50 and 200 mg/kg pre-treatment, picrotoxin 5 mg/kg. Here is the method: Drug administration: All experiments with MG utilized crude MG obtained from Sigma-Aldrich. For pre-treatment, MG (50 or 200 mg/kg) or vehicle (0.9% saline) was administered by i.p. injection 10 minutes before the seizure-inducing agent. For treatment after seizure onset, MG (200 mg/kg) or vehicle (0.9% saline) was administered by i.p. injection ten minutes after seizure onset. For GLO1 inhibition, BrBzGCp2 (50 mg/kg) or vehicle (8% DMSO and 18% Tween-80) was administered by i.p. injection two hours before seizure induction.
Seizure induction: For picrotoxin-induced seizures, 5 mg/kg of picrotoxin in 0.9% saline was administered by i.p. injection. Seizures were scored for one hour after picrotoxin administration. For pilocarpine-induced seizures, mice were pre-treated with atropine (5 mg/kg in 0.9% saline) by i.p. injection in order to reduce the peripheral effects of pilocarpine. Thirty minutes after atropine administration, pilocarpine was administered by i.p. injection. B6 mice were treated with 250 mg/kg pilocarpine in 0.9% saline, and FVB mice (WT and Tg) were treated with 300 mg/kg pilocarpine in 0.9% saline. Seizures were scored for 90 minutes after pilocarpine administration.
Seizure scoring: Picrotoxin-induced seizures were scored as the presence of generalized convulsions as well as the latency to and duration of generalized convulsions.

The test system of data set [7] is depression-like behavior in mice. The following applies: intracerebroventricular MG for six days (Hambsch 2010); cited from earlier work.
The mark [8] stands for this setting: MG 50 mg/kg i.p., male WT B6 mice, 10 min post-injection.

In the case of `CC(=O)C=O` [MG, methylglyoxal], in data set [1], the “number of transitions between compartments” value is recorded as “without affecting the number of transitions”. For the same compound, the “time spent in the light compartment” value in data set [1] (10 min post-injection) is reported as “increased time spent in the light compartment”. For the same compound, the “anxiety-like behavior in the OF after chronic treatment” value in data set [2] (MG 4 mg/kg i.p. twice daily for five days, tested on the sixth day) is on record as “significant reduction in anxiety-like behavior”. Also, in data set [2] (MG 50 mg/kg i.p., CD-1 mice), the “center time in the OF” value is on record as “increased center time in the OF” and the “distance traveled in the OF” value is given as “without affecting distance traveled”. In data set [2] (MG 50 mg/kg i.p., CD-1 mice with Glo1 duplication), the “anxiety-like behavior in the OF in mice with the Glo1 duplication” value is “reduced anxiety-like behavior in mice with the Glo1 duplication”. Besides, in data set [2] (setting [8]), the “distance traveled in the OF” value is given as “without affecting distance traveled” and the “increase in center time in the OF” value was “approximately 30%”. Moreover, the “persistence of anxiolytic effect after injection” value in data set [2] (MG 50 mg/kg i.p., separate cohorts tested at different intervals) was not above 20 min. Moreover, in data set [2] (MG 50 mg/kg i.p., seven experiments, total n = 181, fixed-effect model), the “Cohen's d, meta-analysis of anxiolytic effect in the OF test” value is 0.78 and 0.7798. Also, the “locomotion in the OF” value in data set [2] (MG 100 mg/kg, WT B6 mice) is listed as “decreased locomotion in the OF”. Further, the “effect on major sodium currents” value in data set [3] was “did not affect the major sodium currents”. For the same compound, in data set [4] (read-out: EC50 of evoked inward currents in CGN, whole-cell voltage clamp), the EC50 turned out to be 12 ± 0.7 µM. The EC50 in data set [4] (whole-cell current clamp, read-out: EC50 of depolarization of CGN) came out at 10.5 ± 0.5 µM. Further, in data set [5], the “activation of glutamate receptors” value was “did not activate”. In data set [6], the “duration of generalized convulsions” value is given as “reduced seizure duration” and the “percentage of mice undergoing generalized convulsions” value was “reduced the percentage of mice undergoing generalized convulsions”. Besides, the “latency to first generalized convulsion (seizure onset)” value in data set [6] (dose-dependent) is “delayed seizure onset”. The “immobility in the TST” value in data set [7] is given as “reduced immobility in the TST”.

The term EC50 denotes the midpoint of the concentration-response curve.
